In ChEMBL document CHEMBL1201862, “PubChem BioAssay data set” (2004):
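Each compound was tested at five concentrations against cells in 96-well plates for 48 hours. GI50 is the concentration that inhibits growth by half.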 Activity calls are given as the source filed them. No stated cut-off is given here; in the data, active = GI50 up to about 1.1 µM and inactive = higher.

Assays:
Test in all cases: DTP human tumour cell line panel, 48 h
HL-60 = test system: HL-60
MCF7 = test system: MCF7
786-0 = test system: 786-0
MOLT-4 = test system: MOLT-4
KM12 = test system: KM12
HOP-62 = test system: HOP-62
SK-MEL-5 = test system: SK-MEL-5
SNB-19 = test system: SNB-19
UO-31 = test system: UO-31
SNB-75 = test system: SNB-75
NCI-H522 = test system: NCI-H522
BT-549 = test system: BT-549
SK-OV-3 = test system: SK-OV-3
Hs-578T = test system: Hs-578T
HT-29 = test system: HT-29
NCI-H23 = test system: NCI-H23
TK-10 = test system: TK-10
U-251 = test system: U-251
MDA-MB-231 = test system: MDA-MB-231
Malme-3M = test system: Malme-3M

SMILES | GI50 (HL-60) | GI50 (MCF7) | GI50 (786-0) | GI50 (MOLT-4) | GI50 (KM12) | GI50 (HOP-62) | GI50 (SK-MEL-5) | GI50 (SNB-19) | GI50 (UO-31) | GI50 (SNB-75) | GI50 (NCI-H522) | GI50 (BT-549) | GI50 (SK-OV-3) | GI50 (Hs-578T) | GI50 (HT-29) | GI50 (NCI-H23) | GI50 (TK-10) | GI50 (U-251) | GI50 (MDA-MB-231) | GI50 (Malme-3M)
Nc1nc(N)c2cc(Sc3ccc4ccccc4c3)ccc2n1 | 1.38 µM (inactive) | 1.3 µM (inactive) | 0.479 µM (active) | 2.8 µM (inactive) | 1.98 µM (inactive) | 3.56 µM (inactive) | 0.845 µM (active) | 3.48 µM (inactive) | 2.76 µM (inactive) | 14.4 µM (inactive) | 2.2 µM (inactive) | 3.61 µM (inactive) | 13.8 µM (inactive) | 11.9 µM (inactive) | 1.79 µM (inactive) | 5.82 µM (inactive) | 3.1 µM (inactive) | 2.15 µM (inactive) | 2.54 µM (inactive) | 
CSc1ncnc2c1ncn2CC(=O)C1CCC2C3CCC4=CC(=O)CCC4(C)C3CCC12C (configuration not stated) | 0.28 µM (active) | 3.08 µM (inactive) | 11 µM (inactive) | 1.69 µM (inactive) | 2.84 µM (inactive) | 2.42 µM (inactive) | 2.04 µM (inactive) | 19.2 µM (inactive) | 0.757 µM (active) | 5.19 µM (inactive) | 3.61 µM (inactive) | 2.58 µM (inactive) | 16.3 µM (inactive) | 19.1 µM (inactive) | 3.76 µM (inactive) | 3.79 µM (inactive) | 4.46 µM (inactive) | 7.62 µM (inactive) | 6.64 µM (inactive) | 7.16 µM (inactive)
NC(=O)N(O)c1cccc(Br)c1 | > 100 µM (inactive) | > 100 µM (inactive) | > 100 µM (inactive) | > 100 µM (inactive) | > 100 µM (inactive) | > 100 µM (inactive) | > 100 µM (inactive) | > 100 µM (inactive) | > 100 µM (inactive) | > 100 µM (inactive) | > 100 µM (inactive) | > 100 µM (inactive) | > 100 µM (inactive) | > 100 µM (inactive) | > 100 µM (inactive) | > 100 µM (inactive) | > 100 µM (inactive) | > 100 µM (inactive) | > 100 µM (inactive) | 
O=C1CSC2=NCC3(NN12)c1ccccc1-c1ccccc13 | > 10 µM (inactive) | > 10 µM (inactive) | > 10 µM (inactive) | > 10 µM (inactive) | > 10 µM (inactive) | > 10 µM (inactive) | > 10 µM (inactive) | > 10 µM (inactive) | > 10 µM (inactive) | > 10 µM (inactive) | > 10 µM (inactive) | > 10 µM (inactive) | > 10 µM (inactive) | > 10 µM (inactive) | > 10 µM (inactive) | > 10 µM (inactive) | > 10 µM (inactive) |  | > 10 µM (inactive) | > 10 µM (inactive)
COc1cc(/C=C2\CC3C4CC=C5C[C@@H](O)CC[C@]5(C)C4CC[C@]3(C)\C2=N\O)cc(OC)c1OC (some centres not stated) | 4.61 µM (inactive) | 3.21 µM (inactive) | 4.66 µM (inactive) | 29.2 µM (inactive) | 2.54 µM (inactive) | 19.6 µM (inactive) | 4.4 µM (inactive) | 21.3 µM (inactive) | 2.28 µM (inactive) | 9.2 µM (inactive) | 4.93 µM (inactive) | 7 µM (inactive) | 23.7 µM (inactive) | 4.42 µM (inactive) | 5.51 µM (inactive) | 7.16 µM (inactive) | 7.53 µM (inactive) | 6.28 µM (inactive) | 7.31 µM (inactive) | 9.35 µM (inactive)
COc1ccc(-c2cc(-c3ccccc3)[nH]c(=S)c2C#N)cc1 | 46.8 µM (inactive) | 30.7 µM (inactive) | 27.2 µM (inactive) | 17.4 µM (inactive) | 45.4 µM (inactive) | 3.85 µM (inactive) | 16 µM (inactive) | 40.4 µM (inactive) | 20.6 µM (inactive) | 31 µM (inactive) | 25.5 µM (inactive) | 39.6 µM (inactive) | 30.8 µM (inactive) | 39.2 µM (inactive) | 36.1 µM (inactive) | 21.8 µM (inactive) | 76.7 µM (inactive) | 25.8 µM (inactive) | 32.4 µM (inactive) | 32.4 µM (inactive)
N#CC12CC=C(c3ccccc3)N=C1NC(c1ccccc1)=CC2 (configuration not stated) | 22.4 µM (inactive) | 50 µM (inactive) | > 100 µM (inactive) | 21.8 µM (inactive) | 51.5 µM (inactive) | > 100 µM (inactive) | 19 µM (inactive) | 90.8 µM (inactive) | 40.3 µM (inactive) | 49 µM (inactive) | 46.7 µM (inactive) | 40.6 µM (inactive) | > 100 µM (inactive) | > 100 µM (inactive) | 57.3 µM (inactive) | 84.9 µM (inactive) | > 100 µM (inactive) | 85.1 µM (inactive) | > 100 µM (inactive) | > 100 µM (inactive)
